Reference: patent US6894072B2, “Compounds as NS3-serine protease inhibitors of hepatitis C virus” (Schering Corporation, priority 2002, dated 2005)

Molecular target: T1, HCV serine protease (Hepatitis C virus genotype 1a, UniProt P27958)
T1 construct: Spectrophotometric assay for the HCV serine protease
Assay: Spectrophotometric assay for HCV protease inhibitory activity
Type: biochemical
Conditions: procedure of WO 02/08244
Method: Assay for HCV Protease Inhibitory Activity: Spectrophotometric Assay: Spectrophotometric assay for the HCV serine protease was performed on the inventive compounds by following the procedure described in PCT Publication No. WO 02/08244 published Jan. 31, 2002. The activity of the compounds in Table 1 is shown in the same Table.

T1 sequence (P27958 1027-1657): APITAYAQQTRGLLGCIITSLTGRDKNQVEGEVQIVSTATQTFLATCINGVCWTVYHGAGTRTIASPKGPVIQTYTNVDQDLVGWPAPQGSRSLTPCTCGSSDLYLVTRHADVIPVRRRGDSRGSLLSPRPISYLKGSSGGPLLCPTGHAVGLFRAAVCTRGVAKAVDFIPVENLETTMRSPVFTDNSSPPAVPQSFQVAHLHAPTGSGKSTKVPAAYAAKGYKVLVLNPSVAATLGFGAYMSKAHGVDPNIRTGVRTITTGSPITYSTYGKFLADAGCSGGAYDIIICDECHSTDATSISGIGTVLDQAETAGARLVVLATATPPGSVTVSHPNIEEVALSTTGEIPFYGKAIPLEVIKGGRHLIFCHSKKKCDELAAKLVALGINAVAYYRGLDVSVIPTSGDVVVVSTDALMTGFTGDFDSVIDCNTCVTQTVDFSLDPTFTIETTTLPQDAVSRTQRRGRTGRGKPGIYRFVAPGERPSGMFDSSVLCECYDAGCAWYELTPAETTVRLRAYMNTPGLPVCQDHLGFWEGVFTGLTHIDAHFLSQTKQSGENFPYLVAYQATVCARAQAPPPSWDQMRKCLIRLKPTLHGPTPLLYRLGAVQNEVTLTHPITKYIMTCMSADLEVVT
T1 sequence (P27958 1658-1711): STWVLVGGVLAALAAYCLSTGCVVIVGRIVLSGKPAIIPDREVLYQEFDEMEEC

Activity (binding activity), A (Binding activity A: <5 μM):
CC(C)(C)OC(=O)N[C@H](C(=O)N1CC2C([C@H]1C(=O)NC(CC1CCC1)C(=O)C(=O)N1CCC1)C2(C)C)C1CCCCC1 (stereo partly shown) [Entry 1]
COC(=O)[C@@H]1CCN1C(=O)C(=O)C(CC1CCC1)NC(=O)[C@@H]1C2C(CN1C(=O)[C@@H](NC(=O)OC(C)(C)C)C1CCCCC1)C2(C)C (stereo partly shown) [Entry 2]
CC(C)(C)OC(=O)N[C@H](C(=O)N1CC2C([C@H]1C(=O)NC(CC1CCC1)C(=O)C(=O)N1CC[C@H]1C(=O)O)C2(C)C)C1CCCCC1 (stereo partly shown) [Entry 3]
CC(C)(C)OC(=O)N[C@H](C(=O)N1CC2C([C@H]1C(=O)NC(CC1CCC1)C(=O)C(=O)N1CC[C@H]1C(=O)OCc1ccccc1)C2(C)C)C1CCCCC1 (stereo partly shown) [Entry 4]
